Experimental data published in paper PMC12394750, “2H-1,4-Benzoxazin-3(4H)-one linked 1,2,3-triazole derivatives and their study on inducing DNA damage in tumor cells” (Frontiers in Pharmacology, 2025).
Blank lines part the entries; values can stand above or below the molecule they belong to.

Experiments:
EGFR = system: EGFR; design: method as in Sagam et al., 2024; details: ref Sagam et al., 2024; read-out: EGFR inhibitory activity, IC50; cited from earlier work
[1] = system: Huh-7 (hepatocellular carcinoma); assay: CCK-8 cell viability / IC50, Huh-7; format: cell-based, human; details: 72 h; for viability at 50 µM / IC50: Homo sapiens, Huh-7; for viability at 50 µM / Activity against Huh-7 cells (in words): CCK-8, 50 μM; for IC50: CCK-8 dose-response
Description: (§1) To assess the cytotoxic potential of the newly synthesized compounds c1–c20, a panel of human tumor cell lines—including Huh-7 (hepatocellular carcinoma), MCF-7 (breast cancer), and A549 (lung cancer)—was treated with each compound at a concentration of 50 μM for 72 h. Cell viability and cytotoxicity were evaluated using the CCK-8 assay.
(§2) Cells were cultured in DMEM or RPMI 1640 medium with 10% FBS and 1% penicillin/streptomycin at 37 °C and 5% CO2. A CCK-8 assay was performed with several human cancer cell lines, including A549, Huh-7, MCF-7, HCT-116, and SKOV3, according to the instructions. Cells were plated at a density of 1,000–3,000 cells per well in a 96-well plate. After 24-h incubation, cells were treated with 40 μM compounds for 48 h or 50 μM compounds for 72 h. Cell viability was measured by adding 10 μL per well of CCK-8 reagent, which was dissolved in the cell culture medium, for 1 hour. Absorbance was taken at 450 nm using a microplate reader. The IC50 values of the compounds were further determined. Cells were seeded in a 96-well plate at a density of 1 × 10^3 cells/well. After adhering overnight, cells treated with […] concentrations (10 μM, 20 μM, 40 µM, or 80 μM) were used to draw the dose–response curve, and IC50 values were calculated by GraphPad Prism software. The CCK-8 assay was performed in triplicate, and each experiment was repeated at least three times. The results were expressed as mean ± SEM, and P < 0.05 was considered statistically significant.

MCF-7 (breast cancer) = assay: CCK-8 cell viability, MCF-7; format: cell-based; details: Homo sapiens, MCF7, 72 h
Description: as §1, §2

[2] = CCK-8 cell viability, L02; format: cell-based; details: human, L02 normal liver cells
A549 (lung cancer) = assay: CCK-8 cell viability, A549; format: cell-based; details: Homo sapiens, 72 h
Description: as §1, §2

[3] = system: HCT116 colon cancer cells; design: method as in Mohammed et al., 2022; details: ref Mohammed et al., 2022; read-out: Cytotoxicity against HCT116, IC50; cited from earlier work
Jurkat cells = system: Jurkat cells; design: method as in Pokhodylo et al., 2022; details: ref Pokhodylo et al., 2022; cited from earlier work
A549 lung cancer cells = system: A549 lung cancer cells; design: method as in Han et al., 2024; details: ref Han et al., 2024; cited from earlier work
A549 cell = details: Tummatorn's team, no reference given; read-out: A549 cell proliferation, IC50; cited from earlier work

SMILES: O=C(Cn1nnc(CCN2C(=O)COc3ccccc32)n1)Nc1ccc(Cl)cc1 [compound 12g]
IC50 (EGFR): 0.46 µM

SMILES: COc1cccc2c1C(=O)c1c(O)c3c(c(O)c1C2=O)C[C@@](O)(C(=O)CO)C[C@@H]3O[C@H]1C[C@H](N)[C@H](O)[C@H](C)O1 [doxorubicin]
IC50 [3]: 1.22 µM

SMILES: O=C1COc2cc(NC(=O)c3cccc(-c4cn(Cc5c(Cl)cccc5Cl)nn4)c3)ccc2N1 [compound c1, 3-(1-(2,6-dichlorobenzyl)-1H-1,2,3-triazol-4-yl)-N-(3-oxo-3,4-dihydro-2H-benzo[b][1,4]oxazin-7-yl)benzamide]
Activity against Huh-7 cells (in words) [1]: limited activity
viability at 50 µM [1]: 83.49 ± 0.78%
viability at 50 µM (MCF-7 (breast cancer)): 110 ± 3.84%
viability at 72 h, 50 µM [2]: 84.1 ± 1.2%
viability at 50 µM (A549 (lung cancer)): 97.4 ± 3.35%

SMILES: N#Cc1ccccc1Cn1cc(-c2cccc(C(=O)Nc3ccc4c(c3)OCC(=O)N4)c2)nn1 [compound c7, 3-(1-(2-cyanobenzyl)-1H-1,2,3-triazol-4-yl)-N-(3-oxo-3,4-dihydro-2H-benzo[b][1,4]oxazin-7-yl)benzamide]
Activity against Huh-7 cells (in words) [1]: limited activity
viability at 50 µM [1]: 89.1 ± 3.02%
viability at 50 µM (MCF-7 (breast cancer)): 89.2 ± 3.16%
viability at 72 h, 50 µM [2]: 101 ± 3.14%
viability at 50 µM (A549 (lung cancer)): 87.7 ± 6.4%

SMILES: O=C1COc2cc(NC(=O)c3cccc(-c4cn(Cc5ccccc5Br)nn4)c3)ccc2N1 [compound c12, 3-(1-(2-bromobenzyl)-1H-1,2,3-triazol-4-yl)-N-(3-oxo-3,4-dihydro-2H-benzo[b][1,4]oxazin-7-yl)benzamide]
Activity against Huh-7 cells (in words) [1]: limited activity
viability at 50 µM [1]: 86.1 ± 1.69%
viability at 50 µM (MCF-7 (breast cancer)): 87.15 ± 0.55%
viability at 72 h, 50 µM [2]: 105 ± 2.71%
viability at 50 µM (A549 (lung cancer)): 87.7 ± 3.88%

SMILES: Cc1c(C(=O)Nc2ccc(SC#N)cc2)nnn1-c1ccc(C(C)C)cc1 [compound 4a]
DNA damage (Jurkat cells): induce DNA damage
Mitochondrial membrane potential (Jurkat cells): reduce mitochondrial membrane potential

SMILES: COc1cc(/C=C/C(=O)c2ccc(-n3cc(CN4CCN(c5cc6c(cc5F)c(=O)c(C(=O)O)cn6C5CC5)CC4)nn3)cc2)cc(OC)c1OC [compound 4j]
IC50 [3]: 2.53 µM

SMILES: C#CCCC(=O)OC1CC2[C@@]3(C)CCC(OC(=O)CCc4cn(CC(=O)OC)nn4)C(C)(C)C3CC[C@@]2(C)[C@]2(C)CCC([C@](C)(O)CCCC(C)(C)OC)C12 (stereo partly shown) [compound 6a]
Inhibitory activity against A549 (A549 lung cancer cells): strong inhibitory activity

SMILES: Fc1ccc2c(c1)C1=Nc3ccc(Br)cc3C1CN2Cc1cn(Cc2cccc(Cl)c2)nn1 (stereo not shown) [compound 11l]
IC50 (A549 cell): 3.01 µM

SMILES: N#Cc1ccc(F)cc1Cn1cc(-c2cccc(C(=O)Nc3ccc4c(c3)OCC(=O)N4)c2)nn1 [compound c11, 3-(1-(2-cyano-5-fluorobenzyl)-1H-1,2,3-triazol-4-yl)-N-(3-oxo-3,4-dihydro-2H-benzo[b][1,4]oxazin-7-yl)benzamide]
Activity against Huh-7 cells (in words) [1]: limited activity
viability at 50 µM [1]: 98 ± 1.22%
viability at 50 µM (MCF-7 (breast cancer)): 92.96 ± 0.64%
viability at 72 h, 50 µM [2]: 111 ± 2.9%
viability at 50 µM (A549 (lung cancer)): 85.4 ± 2.84%

SMILES: O=c1[nH]cc(F)c(=O)[nH]1 [5-fluorouracil, reference compound]
IC50 [1]: 21 ± 6.37 µM

SMILES: O=C1COc2cc(NC(=O)c3cccc(-c4cn(Cc5c(F)cccc5Cl)nn4)c3)ccc2N1 [compound c15, 3-(1-(2-chloro-6-fluorobenzyl)-1H-1,2,3-triazol-4-yl)-N-(3-oxo-3,4-dihydro-2H-benzo[b][1,4]oxazin-7-yl)benzamide]
Activity against Huh-7 cells (in words) [1]: limited activity
viability at 50 µM [1]: 75.8 ± 2.97%
viability at 50 µM (MCF-7 (breast cancer)): 84.6 ± 1.32%
viability at 72 h, 50 µM [2]: 113.7 ± 1.08%
viability at 50 µM (A549 (lung cancer)): 86.5 ± 2.25%

Second part, led by results:

IC50 [1]: > 50 µM
SMILES: O=C1COc2cc(NC(=O)c3cccc(-c4cn(Cc5ccc(Br)cc5F)nn4)c3)ccc2N1 [compound c13, 3-(1-(4-bromo-2-fluorobenzyl)-1H-1,2,3-triazol-4-yl)-N-(3-oxo-3,4-dihydro-2H-benzo[b][1,4]oxazin-7-yl)benzamide]
viability at 50 µM [1]: 17.7 ± 1.58%
viability at 50 µM (MCF-7 (breast cancer)): 98.9 ± 2.03%
viability at 72 h, 50 µM [2]: 115 ± 1.35%
viability at 50 µM (A549 (lung cancer)): 78.3 ± 2.72%

IC50 [1]: 43.41 ± 0.08 µM
SMILES: O=C1COc2cc(NC(=O)c3cccc(-c4cn(Cc5ccccc5F)nn4)c3)ccc2N1 [compound c3, 3-(1-(2-fluorobenzyl)-1H-1,2,3-triazol-4-yl)-N-(3-oxo-3,4-dihydro-2H-benzo[b][1,4]oxazin-7-yl)benzamide]
viability at 50 µM [1]: 12.1 ± 0.58%
viability at 50 µM (MCF-7 (breast cancer)): 108.3 ± 0.68%
viability at 72 h, 50 µM [2]: 101 ± 3.04%
viability at 50 µM (A549 (lung cancer)): 92.2 ± 3.87%

IC50 [1]: 43.1 ± 2.43 µM
SMILES: O=C1COc2cc(NC(=O)c3cccc(-c4cn(Cc5ccc(F)c(Cl)c5)nn4)c3)ccc2N1 [compound c9, 3-(1-(3-chloro-4-fluorobenzyl)-1H-1,2,3-triazol-4-yl)-N-(3-oxo-3,4-dihydro-2H-benzo[b][1,4]oxazin-7-yl)benzamide]
viability at 50 µM [1]: 18.8 ± 0.56%
viability at 50 µM (MCF-7 (breast cancer)): 110 ± 2.58%
viability at 72 h, 50 µM [2]: 103 ± 3.98%
viability at 50 µM (A549 (lung cancer)): 86.2 ± 4.4%

IC50 [1]: 35.1 ± 1.84 µM
SMILES: O=C1COc2cc(NC(=O)c3cccc(-c4cn(Cc5cccc(Br)c5)nn4)c3)ccc2N1 [compound c17, 3-(1-(3-bromobenzyl)-1H-1,2,3-triazol-4-yl)-N-(3-oxo-3,4-dihydro-2H-benzo[b][1,4]oxazin-7-yl)benzamide]
viability at 50 µM [1]: 19.2 ± 1.88%
viability at 50 µM (MCF-7 (breast cancer)): 90.41 ± 0.51%
viability at 72 h, 50 µM [2]: 111.7 ± 0.92%
viability at 50 µM (A549 (lung cancer)): 71.3 ± 2.9%

IC50 [1]: 36.19 ± 0.09 µM
SMILES: O=C1COc2cc(NC(=O)c3cccc(-c4cn(Cc5cccc(I)c5)nn4)c3)ccc2N1 [compound c19, 3-(1-(3-iodobenzyl)-1H-1,2,3-triazol-4-yl)-N-(3-oxo-3,4-dihydro-2H-benzo[b][1,4]oxazin-7-yl)benzamide]
viability at 50 µM [1]: 28.5 ± 3.64%
viability at 50 µM (MCF-7 (breast cancer)): 97.2 ± 2.06%
viability at 72 h, 50 µM [2]: 103.4 ± 0.62%
viability at 50 µM (A549 (lung cancer)): 80.5 ± 3.81%

IC50 [1]: 45.9 ± 0.5 µM
SMILES: Cc1ccccc1Cn1cc(-c2cccc(C(=O)Nc3ccc4c(c3)OCC(=O)N4)c2)nn1 [compound c20, 3-(1-(2-methylbenzyl)-1H-1,2,3-triazol-4-yl)-N-(3-oxo-3,4-dihydro-2H-benzo[b][1,4]oxazin-7-yl)benzamide]
viability at 50 µM [1]: 23.6 ± 0.25%
viability at 50 µM (MCF-7 (breast cancer)): 112 ± 4.59%
viability at 72 h, 50 µM [2]: 119.1 ± 0.57%
viability at 50 µM (A549 (lung cancer)): 97.85 ± 0.92%

IC50 [1]: > 50 µM
SMILES: Cc1cc(C)cc(Cn2cc(-c3cccc(C(=O)Nc4ccc5c(c4)OCC(=O)N5)c3)nn2)c1 [compound c6, 3-(1-(3,5-dimethylbenzyl)-1H-1,2,3-triazol-4-yl)-N-(3-oxo-3,4-dihydro-2H-benzo[b][1,4]oxazin-7-yl)benzamide]
viability at 50 µM [1]: 25.6 ± 1.32%
viability at 50 µM (MCF-7 (breast cancer)): 84.8 ± 3.5%
viability at 72 h, 50 µM [2]: 99.7 ± 2.5%
viability at 50 µM (A549 (lung cancer)): 81.6 ± 5.09%

IC50 [1]: 33.21 ± 0.11 µM
SMILES: O=C1COc2cc(NC(=O)c3cccc(-c4cn(Cc5ccc(I)cc5)nn4)c3)ccc2N1 [compound c4, 3-(1-(4-iodobenzyl)-1H-1,2,3-triazol-4-yl)-N-(3-oxo-3,4-dihydro-2H-benzo[b][1,4]oxazin-7-yl)benzamide]
viability at 50 µM [1]: 21.4 ± 4.91%
viability at 50 µM (MCF-7 (breast cancer)): 95.9 ± 2.14%
viability at 72 h, 50 µM [2]: 115.2 ± 0.81%
viability at 50 µM (A549 (lung cancer)): 94 ± 1.88%

IC50 [1]: > 50 µM
SMILES: O=C1COc2cc(NC(=O)c3cccc(-c4cn(Cc5c(F)cccc5F)nn4)c3)ccc2N1 [compound c10, 3-(1-(2,6-difluorobenzyl)-1H-1,2,3-triazol-4-yl)-N-(3-oxo-3,4-dihydro-2H-benzo[b][1,4]oxazin-7-yl)benzamide]
viability at 50 µM [1]: 24.9 ± 0.39%
viability at 50 µM (MCF-7 (breast cancer)): 81.6 ± 1.46%
viability at 72 h, 50 µM [2]: 68.5 ± 2.04%
viability at 50 µM (A549 (lung cancer)): 61.1 ± 3.58%

IC50 [1]: 38.48 ± 0.24 µM
SMILES: O=C1COc2cc(NC(=O)c3cccc(-c4cn(Cc5cccc(C(F)(F)F)c5)nn4)c3)ccc2N1 [compound c8, N-(3-oxo-3,4-dihydro-2H-benzo[b][1,4]oxazin-7-yl)-3-(1-(3-(trifluoromethyl)benzyl)-1H-1,2,3-triazol-4-yl)benzamide]
viability at 50 µM [1]: 13 ± 0.72%
viability at 50 µM (MCF-7 (breast cancer)): 101 ± 4.5%
viability at 72 h, 50 µM [2]: 103 ± 3.1%
viability at 50 µM (A549 (lung cancer)): 86.1 ± 5.46%

IC50 [1]: 33.4 ± 0.8 µM
SMILES: O=C1COc2cc(NC(=O)c3cccc(-c4cn(Cc5cccc(Cl)c5)nn4)c3)ccc2N1 [compound c2, 3-(1-(3-chlorobenzyl)-1H-1,2,3-triazol-4-yl)-N-(3-oxo-3,4-dihydro-2H-benzo[b][1,4]oxazin-7-yl)benzamide]
viability at 50 µM [1]: 17.5 ± 1.15%
viability at 50 µM (MCF-7 (breast cancer)): 103 ± 1.63%
viability at 72 h, 50 µM [2]: 103 ± 2.36%
viability at 50 µM (A549 (lung cancer)): 95.6 ± 2.98%
